Where two headings read alike, the source gives them in different places.
Experiments:
[1] = tested on: cells; test: Measurement of lactate change amount within cells; type: cell-based
Description: Cells were treated with 400 μl of 6% PCA, and then collected and extracted. Centrifugation (13,000 rpm, 10 min) was performed. A precipitate was dried using a Speed-Vac and then a weight of dried precipitate was measured. A supernatant was neutralized using 400 μl of 1 M KOH and a final volume thereof was adjusted to 1 ml using 0.33 M KH2PO4/K2HPO4, pH 7.5. Centrifugation (13,000 rpm, 10 min) was performed and the amount of lactate in a supernatant was measured (Megazyme, K-LATE).

[2] = tested on: C57BL/6J Lep ob/ob mice; test: Weight loss effects in obese mice (ob/ob); type: in vivo; settings: for weight increase ratio vs controls (FIG. 1): Exp. Ex. 3-1: 6.5 week-old ob/ob mice, 100 mg/kg orally once every day for two weeks
Description: 6.5 week-old C57BL/6J Lep ob/ob mice having genetic obesity characteristics available from ORIENTBIO were prepared. Two mice were raised in each polycarbonate breeding cage (200 W×260 L×130H (mm), Three-shine) in which temperature was 22 to 24° C., relative humidity was 30 to 50%, illuminance was 150 to 300 lux, night and day were 12 hours, and exhaust was performed at 10 to 15 air changes per hour. As a feed, low fat diet (11.9 kcal % fat, 5053, Labdiet) manufactured by ORIENTBIO was used. The feed was contained in a feeder and free intake was allowed. As drinking water, water, which was contained in a 250 mL polycarbonate based bottle, purified through a filter and a sterilizer was used and free intake was allowed.
For administration, a disposable syringe fitted with a sonde for oral administration was used and 10 ml/kg of the compound was orally administered into the stomach. As controls, three C57BL/6J Lep ob/ob mice were administered 0.1% SLS in an amount of 100 mg/kg in the same manner as described above. After administration, a time-dependent weight increase ratio was measured and results are illustrated in FIG. 1 below.
Weights of the experimental animals were measured immediately before administration of a test material and six times a week from an administration initiation day to a test termination day. Increased total weights were calculated by subtracting weights measured on an experiment initiation day from weights measured one day before an experiment termination day. Food intake amounts were calculated by measuring feed supply amounts and remaining amounts twice a week from an initiation day of test material administration to a test termination day for each individual.
Weight increase ratios, weight change, and intake amounts depending on administration time were measured and results are illustrated in FIG. 2 below.
Weight increase ratios, weight change, and intake amounts depending on administration time were measured and results are illustrated in FIG. 3 below.
Weight increase ratios, weight change, and intake amounts depending on administration time were measured and results are illustrated in FIG. 4 below.
Weight increase ratios, weight change, and intake amounts depending on administration time were measured and results are illustrated in FIG. 5 below.
Weight increase ratios, weight change, and intake amounts depending on administration time were measured and results are illustrated in FIG. 6 below.
Weight increase ratios, weight change, and intake amounts depending on administration time were measured and results are illustrated in FIG. 7 below.
Weight increase ratios, weight change, and intake amounts depending on administration time were measured and results are illustrated in FIG. 8 below.

[3] = biological target: NQO1 protein (Homo sapiens, UniProt P15559); test: NQO1 activity measurement (cytochrome C reduction); type: biochemical
NQO1 protein, sequence (P15559 whole entry, species assumed): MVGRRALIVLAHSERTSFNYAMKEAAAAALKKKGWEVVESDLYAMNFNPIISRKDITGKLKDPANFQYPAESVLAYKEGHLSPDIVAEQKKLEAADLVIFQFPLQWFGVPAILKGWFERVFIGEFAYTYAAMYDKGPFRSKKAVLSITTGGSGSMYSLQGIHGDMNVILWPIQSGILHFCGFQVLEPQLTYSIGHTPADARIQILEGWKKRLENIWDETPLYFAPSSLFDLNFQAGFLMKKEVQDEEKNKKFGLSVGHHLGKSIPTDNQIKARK
Description: An enzyme reaction solution included 25 mM Tris/HCl (pH 7.4), 0.14% bovine serum albumin, 200 μM NADH, 77 μM cytochrome C, and 5 ng of NQO1 protein. Enzymatic reaction was initiated by adding NADH and performed at 37° C. In this regard, a reaction rate was measured by observing absorbance, which was increased due to reduction of cytochrome C, at 550 nm for 10 minutes and NQO1 activity was represented as an amount of reduced cytochrome C [nmol cytochrome C reduced/min/μg protein].
Extinction coefficient for cytochrome C:21.1 mmol/L/cm=21.1 μmol/ml/cm

[4] = 5 μM, 37° C., absorbance at 550 nm for 10 minutes, 200 μM NADH, 77 μM cytochrome C, 5 ng NQO1 protein
[5] = Exp. Ex. 3-8: 9.5 week-old ob/ob mice, 150 mg/kg orally, otherwise as 3-1
[6] = Exp. Ex. 3-6: 12 week-old ob/ob mice, 150 mg/kg orally, seven days
[7] = Exp. Ex. 3-7: 6.5 week-old ob/ob mice, 150 mg/kg orally, seven days
[8] = Exp. Ex. 3-3: 6 week-old ob/ob mice, 100 mg/kg orally, otherwise as 3-1
[9] = Exp. Ex. 3-2: 10.5 week-old ob/ob mice, 150 mg/kg orally, six days
[10] = Exp. Ex. 3-4: 11 week-old ob/ob mice, 100 mg/kg orally, six days

CC(C)(C)c1nc2c(o1)C(=O)C(=O)c1cc(N)ccc1-2 [Example 30, 7-amino-2-tert-butylnaphtho[1,2-d]oxazole-4,5-dione]
Lactate change amount within cells (nmol/mg cell) [1]: 7.3 nmol/mg cell | intake amount vs controls (FIG. 5) ([2]; mouse, in vivo, po, 150 mg/kg): significantly decreased | weight change vs controls (FIG. 5) ([2]; mouse, in vivo, po, 150 mg/kg): significantly decreased

CC(C)(C)c1nc2c(o1)-c1ccccc1C(=O)C2=O [Example 2, 2-tert-butylnaphtho[2,1-d]oxazole-4,5-dione]
NQO1 activity (5 μM, [nmol cytochrome C reduced/min/μg protein]) [3, 4]: 243.2 nmol cytochrome C reduced/min/μg protein | Lactate change amount within cells (nmol/mg cell) [1]: 6.8 nmol/mg cell | weight increase ratio vs controls (FIG. 1) [2]: significantly decreased

O=C1C(=O)c2c(oc(=O)n2Cc2ccc(F)cc2)-c2ccccc21 [Example 42]
NQO1 activity (5 μM, [nmol cytochrome C reduced/min/μg protein]) [3, 4]: 208.0 nmol cytochrome C reduced/min/μg protein | Lactate change amount within cells (nmol/mg cell) [1]: 7.1 nmol/mg cell | intake amount vs controls (FIG. 8) [2, 5]: significantly decreased in some sections | weight change vs controls (FIG. 8) [2, 5]: significantly decreased in some sections | weight increase ratio vs controls (FIG. 8) [2, 5]: significantly decreased in some sections

CCn1c2c(oc1=O)-c1ccccc1C(=O)C2=O [Example 41]
NQO1 activity (5 μM, [nmol cytochrome C reduced/min/μg protein]) [3]: 237.1 nmol cytochrome C reduced/min/μg protein | Lactate change amount within cells (nmol/mg cell) [1]: 5.2 nmol/mg cell | intake amount vs controls (FIG. 7) ([2]; mouse, in vivo, po, 150 mg/kg): significantly decreased in some sections | weight change vs controls (FIG. 7) ([2]; mouse, in vivo, po, 150 mg/kg): significantly decreased in some sections | weight increase ratio vs controls (FIG. 7) ([2]; mouse, in vivo, po, 150 mg/kg): significantly decreased in some sections

CC(C)c1nc2c(o1)-c1ccccc1C(=O)C2=O [Example 1, 2-isopropylnaphtho[2,1-d]oxazole-4,5-dione]
NQO1 activity (5 μM, [nmol cytochrome C reduced/min/μg protein]) [3, 4]: 255.2 nmol cytochrome C reduced/min/μg protein | Lactate change amount within cells (nmol/mg cell) [1]: 5.2 nmol/mg cell | weight increase ratio vs controls (FIG. 1) [2]: significantly decreased

O=C1C(=O)c2oc(-c3ccc(F)cc3)nc2-c2cccnc21 [Example 36]
NQO1 activity (5 μM, [nmol cytochrome C reduced/min/μg protein]) [3, 4]: 936.1 nmol cytochrome C reduced/min/μg protein | Lactate change amount within cells (nmol/mg cell) [1]: 7.3 nmol/mg cell | intake amount vs controls (FIG. 6) [2, 6]: significantly decreased | weight change vs controls (FIG. 6) [2, 6]: significantly decreased | weight increase ratio vs controls (FIG. 6) [2, 6]: significantly decreased

CN(C)Cc1nc2c(o1)-c1ccccc1C(=O)C2=O [Example 5, 2-((dimethylamino)methyl)naphtho[2,1-d]oxazole-4,5-dione]
Lactate change amount within cells (nmol/mg cell) [1]: 5.9 nmol/mg cell | intake amount vs controls (FIG. 2) ([2]; mouse, in vivo, po, 150 mg/kg): significantly decreased | weight change vs controls (FIG. 2) ([2]; mouse, in vivo, po, 150 mg/kg): significantly decreased

O=C1C(=O)c2oc(-c3ccccc3)nc2-c2ccccc21 [Example 27]
Lactate change amount within cells (nmol/mg cell) [1]: 5.8 nmol/mg cell | weight change vs controls (FIG. 4) ([2]; mouse, in vivo, po, 100 mg/kg): significantly decreased

CC(C)(C)c1nc2c(o1)C(=O)C(=O)c1ccccc1-2 [Example 28, 2-tert-butylnaphtho[1,2-d]oxazole-4,5-dione]
Lactate change amount within cells (nmol/mg cell) [1]: 7.4 nmol/mg cell | intake amount vs controls (FIG. 3) ([2]; mouse, in vivo, po, 100 mg/kg): significantly decreased

CCc1nc2c(o1)C(=O)C(=O)c1ccccc1-2 [Example 51]
NQO1 activity (5 μM, [nmol cytochrome C reduced/min/μg protein]) [3, 4]: 240.9 nmol cytochrome C reduced/min/μg protein | Lactate change amount within cells (nmol/mg cell) [1]: 5.7 nmol/mg cell | intake amount vs controls (FIG. 7) [2, 7]: significantly decreased in some sections | weight change vs controls (FIG. 7) [2, 7]: significantly decreased in some sections | weight increase ratio vs controls (FIG. 7) [2, 7]: significantly decreased in some sections

COc1cccc2c1-c1oc(C(C)C)nc1C(=O)C2=O [Example 8, 2-isopropyl-9-methoxynaphtho[2,1-d]oxazole-4,5-dione]
NQO1 activity (5 μM, [nmol cytochrome C reduced/min/μg protein]) [3, 4]: 205.1 nmol cytochrome C reduced/min/μg protein | Lactate change amount within cells (nmol/mg cell) [1]: 6.2 nmol/mg cell | intake amount vs controls (FIG. 3) [2, 8]: significantly decreased | weight increase ratio vs controls (FIG. 3) [2, 8]: significantly decreased

O=C1C(=O)c2nc(CN3CCOCC3)oc2-c2ccccc21 [Example 4, 2-(morpholinomethyl)naphtho[2,1-d]oxazole-4,5-dione]
NQO1 activity (5 μM, [nmol cytochrome C reduced/min/μg protein]) [3, 4]: 207.3 nmol cytochrome C reduced/min/μg protein | Lactate change amount within cells (nmol/mg cell) [1]: 9.3 nmol/mg cell | intake amount vs controls (FIG. 2) [2, 9]: significantly decreased | weight change vs controls (FIG. 2) [2, 9]: significantly decreased | weight increase ratio vs controls (FIG. 2) [2, 9]: significantly decreased

COc1ccc(Br)c2c1-c1oc(C(C)C)nc1C(=O)C2=O [Example 9, 6-bromo-2-isopropyl-9-methoxynaphtho[2,1-d]oxazole-4,5-dione]
NQO1 activity (5 μM, [nmol cytochrome C reduced/min/μg protein]) [3, 4]: 73.6 nmol cytochrome C reduced/min/μg protein | Lactate change amount within cells (nmol/mg cell) [1]: 7.3 nmol/mg cell | weight change vs controls (FIG. 4) [2, 10]: significantly decreased | weight increase ratio vs controls (FIG. 4) [2, 10]: significantly decreased

From patent US10927085B2, “1,2-naphthoquinone based derivative and method of preparing the same” (HUEN Co., Ltd., priority 2013, dated 2021)
